Results reported in ChEMBL document CHEMBL5096192, “Recent advancements in anti-leishmanial research: Synthetic strategies and structural activity relationships” (Eur J Med Chem, 2021).
pEC50, pIC50: −log10 of the molar value. Converted amounts (≈) assume the structure as drawn.

Key:
[1] = system: Leishmania infantum; assay: Antileishmanial activity against promastigote form of Leishmania infantum MHOM/BR/70/BH46 promastigote assessed as parasite growth inhibition incubated for 72 hrs by Neubauer chamber analysis; type: functional, organism-based; settings: MHOM/BR/70/BH46, 72 h
[2] = system: Leishmania mexicana; assay: Inhibition of recombinant Leishmania mexicana CPB2.8 delta CTE at 20 uM
[3] = system: Mycobacterium tuberculosis; assay: Antimycobacterial activity against Mycobacterium tuberculosis H37Rv ATCC 27294 assessed as inhibition of bacterial growth and measured at 7 to 14 day by broth microdilution assay; type: functional; settings: time 7-14 day
[4] = system: Leishmania major; assay: Antileishmanial activity against Leishmania major (MHOM/IR/-173) promastigotes assessed as inhibition of parasite growth incubated for 72 hrs by alamar blue staining based analysis; type: functional, organism-based; settings: MHOM/IR/-173, 72 h
[5] = system: Leishmania donovani; assay: Antileishmanial activity against promastigote form of wild-type Leishmania donovani MHOM/80/IN/Dd8 assessed as inhibition of parasite growth incubated for 48 hrs by MTT assay; type: functional, organism-based; settings: MHOM/80/IN/Dd8, 48 h
[6] = system: Leishmania infantum; assay: Antileishmanial activity against Leishmania infantum MHOM/MA/67/ITMAP263 intracellular amastigotes infected in primary peritoneal mouse macrophages assessed as inhibition of parasite growth by cell based assay; type: functional, organism-based; settings: MHOM/MA/67/ITMAP263, Peritoneal macrophage
[7] = system: Leishmania major; assay: Antileishmanial activity against Leishmania major JISH118 promastigote infected in human THP-1 cells assessed as parasite growth inhibition measured after 48 hrs by Giemsa staining based analysis; type: functional, organism-based; settings: JISH118, THP-1, 48 h
[8] = system: Leishmania amazonensis; assay: Antileishmanial activity against amastigote form of Leishmania amazonensis (MHOM/BR/71973/M2269) assessed as parasite growth inhibition by MTT assay; type: functional, organism-based
[9] = system: Leishmania amazonensis; assay: Antileishmanial activity against promastigote form of Leishmania amazonensis (MHOM/BR/71973/M2269) assessed as parasite growth inhibition by MTT assay; type: functional, organism-based
[10] = system: Leishmania amazonensis; assay: Antileishmanial activity against promastigote form of Leishmania amazonensis MHOM/BR/77/LTB0016 incubated for 24 hrs by MTT assay; type: functional, organism-based; settings: MHOM/BR/77/LTB0016, 24 h
[11] = system: Leishmania infantum; assay: Antileishmanial activity against promastigote form of Leishmania infantum BH 46 assessed as parasite growth inhibition measured after 48 hrs by Celltiter-Glo assay; type: functional, organism-based; settings: BH 46, 48 h
[12] = Cytotoxicity against BALB/c mouse peritoneal macrophages assessed as reduction in cell viability measured after 48 hrs by luminescence based CellTiter-Glo assay; type: toxicity, Peritoneal macrophage
[13] = system: Leishmania major; assay: Antileishmanial activity against Leishmania major axenic amastigotes assessed as parasite growth inhibition by Alamar blue assay; type: functional, organism-based
[14] = system: Leishmania donovani; assay: Antileishmanial activity against Leishmania donovani MHOM/IN/83/AG83 intracellular amastigotes infected in mouse RAW264.7 cells assessed as parasite growth inhibition incubated for 48 hrs by Giemsa staining based microscopic analysis; type: functional, organism-based; settings: MHOM/IN/83/AG83, RAW264.7, 48 h
[15] = system: Leishmania donovani; assay: Antileishmanial activity against promastigote form of Leishmania donovani MHOM/IN/83/AG83 assessed as inhibition of promastigote growth incubated for 48 hrs by MTT reduction assay; type: functional, organism-based; settings: MHOM/IN/83/AG83, 48 h
[16] = system: Leishmania mexicana; assay: Antileishmanial activity against mammalian stage Leishmania mexicana MNYC/BZ/62/M379 axenic amastigotes assessed as inhibition of […] incubated for 24 hrs by alamar blue assay; type: functional; settings: read-out: ED50 (the source's name)
[17] = Selectivity index, ratio of CC50 for cytotoxicity against human THP1 cells to IC50 for antileishmanial activity against promastigote form of Leishmania donovani; type: toxicity, cell-based; settings: read-out: Ratio CC50/IC50
[18] = system: Leishmania donovani; assay: Antileishmanial activity against promastigote form of Leishmania donovani assessed as inhibition of promastigote growth incubated for 48 hrs by Alamar blue assay; type: functional, organism-based
[19] = system: Leishmania infantum; assay: Antileishmanial activity against Leishmania infantum MHOM/MA/67/ITMAP263 intracellular amastigotes infected in mouse bone marrow derived macrophage cells assessed as parasite growth inhibition measured after 24 hrs by DAPI staining based microscopic analysis; type: functional, organism-based; settings: MHOM/MA/67/ITMAP263, Macrophage
[20] = Cytotoxicity against mouse bone marrow-derived macrophage cells assessed as reduction in cell viability measured after 24 hrs by resazurin assay; type: toxicity, cell-based, BMDM; settings: bone marrow-derived macrophages
[21] = system: Leishmania mexicana; assay: Antileishmanial activity against promastigote form of Leishmania mexicana assessed as inhibition of parasite growth measured for 10 days by Neubauer counting chamber based analysis; type: functional, organism-based; settings: 240 h
[22] = system: Leishmania braziliensis; assay: Antileishmanial activity against promastigote form of Leishmania braziliensis MHOM/BR/75/M2904 promastigotes assessed as parasite growth inhibition incubated for 48 hrs by resazurin assay; type: functional, organism-based; settings: MHOM/BR/75/M2904, 48 h
[23] = system: U-937; assay: Cytotoxicity against human U-937 cells assessed as reduction in cell viability measured after 72 hrs by MTT assay; type: functional; settings: read-out: LC50 (the source's name)
[24] = system: Leishmania panamensis; assay: Antileishmanial activity against Leishmania panamensis MHOM/CO/87/UA140-EGFP intracellular amastigotes infected in U-937 cells assessed as parasite growth inhibition measured after 72 hrs by flow cytometry analysis; type: functional, organism-based; settings: U-937, 72 h
[25] = system: Leishmania amazonensis; assay: Antileishmanial activity against promastigote form of Leishmania amazonensis (MHOM/BR/75/Josefa) assessed as inhibition of parasite growth measured after 72 hrs by Neubauer counting chamber based analysis; type: functional, organism-based
[26] = system: Leishmania panamensis; assay: Antileishmanial activity against promastigote form of Leishmania panamensis MHOM/CO/87/UA140-EGFP infected in human U-937 cells assessed as parasite growth inhibition measured after 72 hrs by flow cytometer analysis; type: functional, organism-based; settings: U-937, 72 h
[27] = system: Leishmania braziliensis; assay: Antileishmanial activity against promastigote form of Leishmania braziliensis MHOM/CO/88/301-EGFP infected in human U-937 cells assessed as parasite growth inhibition measured after 72 hrs by flow cytometer analysis; type: functional, organism-based; settings: U-937, 72 h

`CCc1ccc(NC(=S)N/N=C/c2c[nH]c3c(C)cc(Br)cc23)cc1` gave a pIC50 [1] of 5.36.

In the case of `COC(=O)c1ccc(NC(=O)CSc2nc3ccccc3n2S(=O)(=O)c2cc(C)cc(C)c2)cc1`, the inhibition [2] was 97%.

In the case of `OCc1cn(-c2cc(O)ccc2O)nn1`, the MIC90 [3] was 16 µM (≈ 3.32 µg/mL) and the pIC50 [4] was 4.64.

`CCCCCCCCCCCCCCCCOP(=O)([O-])OCC[N+](C)(C)C` [MILTEFOSINE] showed a pIC50 [5] of 4.62 and a pIC50 [6] of 5.35.

For `c1cncc(Nc2nnc(-c3ccc(C(c4c[nH]c5ccccc45)c4c[nH]c5ccccc45)cc3)s2)c1`, the pIC50 [7] was 6.15.

Compound `CCCc1cc(OC)c2oc(=O)c(C(=O)c3ccc([N+](=O)[O-])cc3)cc2c1` has a pIC50 [8] of 4.92 and a pIC50 [9] of 5.45.

`N=C(N)c1ccc(OCCCCCOc2ccc(C(=N)N)cc2)cc1` [PENTAMIDINE] gave a pIC50 [10] of 4.91.

Compound `COc1ccc(-c2csc(N/N=C/c3ccccn3)n2)cc1` has a pIC50 [11] of 5.56 and a CC50 at 48 h [12] of 1.35 µM.

In the case of `Cc1cc(C)cc(S(=O)(=O)n2c(SCC(=O)Nc3ccccc3)nc3ccccc32)c1`, the inhibition [2] was 97%.

`COc1ccc(-c2nn(-c3ccccc3)cc2/C=N/N=C/c2c(C)nn(-c3ccccc3)c2Cl)cc1` gave a pIC50 [13] of 5.84.

`COc1ccc(-c2nnc(/C=C/c3cn(-c4ccccc4)nc3-c3ccccc3)o2)cc1OC` showed an IC50 [14] of 66.8 µg/mL (≈ 148 µM) and an IC50 [15] of 40.1 µg/mL (≈ 89 µM).

Work on `CN(C)CCCn1cc(/C=C/C(=O)c2ccc(I)cc2)c2ccccc21` yielded a pIC50 [5] of 4.62.

Work on `CC1(C)CC[C@]2(NC(=O)N3CCC[C@H]3C(=O)O)CC[C@]3(C)C(=CC[C@@H]4[C@@]5(C)CC[C@@H]6OC(C)(C)OC[C@@]6(C)[C@@H]5CC[C@]43C)[C@@H]2C1` yielded a pEC50 [16] of 5.40.

In the case of `CC(C)CCN1C(=O)C=CC1=O`, the selectivity ratio [17] was > 781 and the IC50 [18] was < 0.0128 µg/mL.

Compound `CCCCCCCCNCc1ccc2c(c1)C(=O)CC(C)(C)O2` has a pIC50 [19] of 4.61 and a CC50 at 24 h [20] of 40.2 µM.

`Fc1cccc(Nc2cnc3ccccc3c2)c1` showed a pIC50 [21] of 4.38.

Compound `CC(C)=CCC1=C(OC(=O)CCc2cn(-c3ccc(C)cc3)nn2)C(=O)c2ccccc2C1=O` has a pIC50 [22] of 4.80.

With `O=C1C=C(c2ccc(F)cc2)S(=O)(=O)c2ccccc21` the CC50 [23] was 694 µM and the pEC50 [24] was 5.17.

`CN(C)CCCn1cc(/C=C/C(=O)c2ccc(Cl)cc2)c2ccccc21` gave a pIC50 [5] of 4.67.

`CC(C)=CC1=C(OC(=O)CCc2cn(-c3ccc(C)cc3)nn2)C(=O)c2ccccc2C1=O` showed a pIC50 [22] of 4.57.

Compound `CC1=CC[C@@H](C(C)(C)NC(=S)N/N=C/c2cccc([N+](=O)[O-])c2)CC1` has a pIC50 [25] of 5.62.

With `O=C(N/N=C1\CCOc2ccccc21)c1ccccc1` the EC50 [26] was 20.1 µg/mL (≈ 75.5 µM) and the EC50 [27] was 12.1 µg/mL (≈ 45.4 µM).

Work on `S=C(N/N=C/c1c[nH]c2c(Br)cc(Br)cc12)Nc1ccccc1` yielded a pIC50 [1] of 5.25.

Compound `Fc1ccc(Nc2cnc3ccccc3c2)cc1` has a pIC50 [21] of 4.38.

For `O=[N+]([O-])c1ccc(COc2ccc(-c3nc4ccccc4[nH]3)cc2)cc1`, the pIC50 [5] was 4.17.
